Where two headings read alike, the source gives them in different places. Starred links: 1 amine or outer side, 2 acyl side, 3 side chain; linkers in the order of their positions; H or OH if unused. Non-standard residues stand in square brackets, D forms with d. Groups on a side chain read outwards from the residue. *: point of attachment. C20 diacid = O=C(O)CCCCCCCCCCCCCCCCCCC(=O)*; C18 diacid = O=C(O)CCCCCCCCCCCCCCCCC(=O)*; γGlu = O=C(O)[C@H](CCC(=O)[*:2])N[*:1]; εLys = N[C@@H](CCCCN[*:1])C(=O)[*:2]; NMeR = CN[C@@H](CCCNC(=N)N)C(=O)O; Tle = CC(C)(C)[C@H](N)C(=O)O; AEEA = NCCOCCOCC(=O)O; Aib = CC(C)(N)C(=O)O

One test addresses T1, hGLP1R (Homo sapiens, UniProt P43220).
T1 construct: expressed in transfected cells; host or cells: HEK-293 cells carrying a CRE-luciferase reporter gene
Briefly: hGLP1R CreLuc reporter gene assay in 0.5% and 100% plasma. It counts as cell-based. The following applies: CreLuc reporter gene assay. An excerpt: (§1) Example 1: hGLPR/hGIPR/hNPY2R CreLuc Assay in 0.5% and 100% Plasma
(§2) CHO and HEK-293 recombinant cell lines express a luciferase reporter gene under control of the cAMP responsive element (CRE). As a second recombinant protein the GLP-1 and NPY2 receptors were expressed in the reporter gene HEK cells, and the GIP receptor was expressed in the reporter gene CHO cells, respectively. Stimulation of these recombinant cells with an agonist leads to an increase of intracellular cAMP levels. In the presence of cAMP, the transcription factor CRE binding protein (CREB) binds to the CRE and to the CREB binding protein (CBP), which leads to transcription of the luciferase reporter gene. Peptides upon serial-dilution in 100% DMSO were transferred into 384-well assay plates with 5 μl pre-dispensed assay buffer (1×HBSS, 20 mM HEPES, pH7.4 supplemented with 0.5% human plasma) using acoustic dispensing on a Labcyte ECHO. Cryo-preserved transgenic reporter gene cells were thawed in assay buffer. 20 μl (10.000 cells/well) were added to the plate with the peptides and incubated for 4 hours at 37° C. in a humidified incubator. Following incubation, assay plates are equilibrated to room temperature, followed by addition of 25 μl of Bright-GIo™ Luciferase reagent, incubation at room temperature for 10 minutes and analysis of luminescence (Envision Reader). Concentration response evaluation of compounds was performed with 8 concentrations of peptides (covering four decades). EC50 values were calculated by non-linear regression using sigmoid concentration-response with variable slope. The same assays were run in the presence of 100% plasma with no additional buffer constituents.

For a further test, the target named is T2, hGIPR (Homo sapiens, UniProt P48546).
T2 construct: expressed in transfected cells; host or cells: CHO cells carrying a CRE-luciferase reporter gene
T2 sequence (P48546 22-466): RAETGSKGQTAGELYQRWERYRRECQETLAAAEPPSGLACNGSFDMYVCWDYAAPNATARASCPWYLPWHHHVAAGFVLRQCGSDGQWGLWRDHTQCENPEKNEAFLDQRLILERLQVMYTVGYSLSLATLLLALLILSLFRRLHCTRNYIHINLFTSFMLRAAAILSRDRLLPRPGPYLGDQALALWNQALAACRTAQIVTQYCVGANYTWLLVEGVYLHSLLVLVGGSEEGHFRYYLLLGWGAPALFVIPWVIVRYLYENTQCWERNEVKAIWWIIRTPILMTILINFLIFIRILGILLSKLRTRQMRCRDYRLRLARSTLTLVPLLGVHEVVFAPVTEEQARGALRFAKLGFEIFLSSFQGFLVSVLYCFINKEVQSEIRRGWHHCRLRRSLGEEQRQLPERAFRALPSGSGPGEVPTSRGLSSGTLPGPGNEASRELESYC
The test can be described thus: hGIPR CreLuc reporter gene assay in 0.5% and 100% plasma. The test is classed as cell-based. The following applies: CreLuc reporter gene assay.
Text: as §1, §2

The mark [1] stands for this setting: 0.5% human plasma, read-out: hGLP1R 0.5% hP.
Setting [2] is: 100% human plasma, read-out: hGLP1R 100% hP.
Setting [3] is: 0.5% human plasma, read-out: hGIPR 0.5% hP.
[4] abbreviates: 100% human plasma, read-out: hGIPR 100% hP.

T1 sequence (P43220 24-463): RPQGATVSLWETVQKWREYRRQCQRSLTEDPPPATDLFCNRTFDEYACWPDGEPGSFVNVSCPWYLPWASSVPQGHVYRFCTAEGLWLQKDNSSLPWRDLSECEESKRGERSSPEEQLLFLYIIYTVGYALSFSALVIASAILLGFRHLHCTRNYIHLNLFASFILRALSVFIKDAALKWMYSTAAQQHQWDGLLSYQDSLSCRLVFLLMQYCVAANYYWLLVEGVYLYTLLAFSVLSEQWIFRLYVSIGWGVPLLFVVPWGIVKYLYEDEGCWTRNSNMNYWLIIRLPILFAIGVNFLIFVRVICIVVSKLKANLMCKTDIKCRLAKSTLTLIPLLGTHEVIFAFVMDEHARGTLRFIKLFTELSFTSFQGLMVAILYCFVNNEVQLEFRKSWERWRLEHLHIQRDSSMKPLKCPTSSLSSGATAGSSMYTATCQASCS

For the substance “H-Y[Aib]EGTFTSDYSI[Aib]LEKQAQ[Aib]AFVEWLIK([εLys-γGlu-γGlu-γGlu-γGlu-γGlu-γGlu-C20 diacid])GGPSSAVSLRHYYNWLTRQRY-NH2 [Compound 33, Y-Aib-E-G-T-F-T-S-D-Y-S-I-Aib-L-E-K-Q-A-Q-Aib-A-F-V-E-W-L-I-K(1,3)-GGPSSAVSLRHYYNWLTRQRY-NH2.C20DA-gGlu-gGlu-gGlu-gGlu-gGlu-gGlu-eLys(1,2)]”, the EC50 stood at 0.14 nM at hGLP1R (setting [1]), 3.17 nM on hGLP1R (setting [2]) and 0.25 nM at hGIPR (setting [3]).

With “H-Y[Aib]EGTFTSDYSI[Aib]LEKQAQ[Aib]AFVEWLIK([εLys-γGlu-γGlu-γGlu-γGlu-γGlu-γGlu-C20 diacid])GGPSSGADLRHYLNWLTRQRY-NH2 [Compound 72, Y-Aib-E-G-T-F-T-S-D-Y-S-I-Aib-L-E-K-Q-A-Q-Aib-A-F-V-E-W-L-I-K(1,3)-GGPSSGADLRHYLNWLTRQRY-NH2.C20DA-gGlu-gGlu-gGlu-gGlu-gGlu-gGlu-eLys(1,2)]”, the EC50 worked out at 0.15 nM at hGLP1R (setting [1]), 2.87 nM at hGLP1R (setting [2]) and 0.29 nM on hGIPR (setting [3]).

With “H-Y[Aib]EGTFTSDYSI[Aib]LEKQAQ[Aib]AFVEWLIK([εLys-γGlu-γGlu-γGlu-γGlu-γGlu-γGlu-C20 diacid])GGPSSGASLRHYYNLLTRQRY-NH2 [Compound 195, Y-Aib-E-G-T-F-T-S-D-Y-S-I-Aib-L-E-K-Q-A-Q-Aib-A-F-V-E-W-L-I-K(1,3)-GGPSSGASLRHYYNLLTRQRY-NH2.C20DA-gGlu-gGlu-gGlu-gGlu-gGlu-gGlu-eLys(1,2)]”, the results for the EC50 on hGLP1R (setting [1]), on hGIPR (setting [3]) and on hGIPR (setting [4]) were 0.13 nM, 0.25 nM and 1.42 nM, respectively.

For “H-Y[Aib]EGTFTSDYSI[Aib]LEKQAQ[Aib]AFVEWLIK([εLys-γGlu-γGlu-γGlu-γGlu-γGlu-γGlu-C20 diacid])GGPSSGASLRHYYNW[Tle]TRQRY-NH2 [Compound 137, Y-Aib-E-G-T-F-T-S-D-Y-S-I-Aib-L-E-K-Q-A-Q-Aib-A-F-V-E-W-L-I-K(1,3)-G-G-P-S-S-G-A-S-L-R-H-Y-Y-N-W-Tle-T-R-Q-R-Y-NH2.C20DA-gGlu-gGlu-gGlu-gGlu-gGlu-gGlu-eLys(1,2)]”, the EC50 at hGLP1R (setting [1]) worked out at 0.12 nM; at hGIPR (setting [3]), 0.28 nM; at hGIPR (setting [4]) it was 1.5 nM.

For “H-Y[Aib]EGTFTSDYSI[Aib]LEKQAQ[Aib]AFVEWLIK([εLys-γGlu-γGlu-γGlu-γGlu-γGlu-γGlu-C20 diacid])GGPSSGASLRHYYN[Aib]LTRQRY-NH2 [Compound 218, Y-Aib-E-G-T-F-T-S-D-Y-S-I-Aib-L-E-K-Q-A-Q-Aib-A-F-V-E-W-L-I-K(1,3)-G-G-P-S-S-G-A-S-L-R-H-Y-Y-N-Aib-L-T-R-Q-R-Y-NH2.C20DA-gGlu-gGlu-gGlu-gGlu-gGlu-gGlu-eLys(1,2)]”, the EC50 at hGLP1R (setting [1]) stood at 0.16 nM; on hGIPR (setting [3]), 0.36 nM; on hGIPR (setting [4]), 2.35 nM.

Turning to “H-Y[Aib]EGTFTSDYSI[Aib]LEKQAQ[Aib]AFVEWLIK([εLys-γGlu-γGlu-γGlu-γGlu-γGlu-γGlu-C20 diacid])GGPSSGAS[Aib]RHYYNWLTRQRY-NH2 [Compound 118, Y-Aib-E-G-T-F-T-S-D-Y-S-I-Aib-L-E-K-Q-A-Q-Aib-A-F-V-E-W-L-I-K(1,3)-G-G-P-S-S-G-A-S-Aib-R-H-Y-Y-N-W-L-T-R-Q-R-Y-NH2.C20DA-gGlu-gGlu-gGlu-gGlu-gGlu-gGlu-eLys(1,2)]”, the EC50 on hGLP1R (setting [1]) turned out to be 0.05 nM; on hGIPR (setting [3]), 0.06 nM; on hGIPR (setting [4]), 0.55 nM.

In the case of “H-Y[Aib]EGTFTSDYSI[Aib]LEKQAQ[Aib]AFVEWLIK([εLys-γGlu-γGlu-γGlu-γGlu-γGlu-γGlu-C20 diacid])GGPSSGAS[Aib]RHYYNWLTRQ[NMeR]Y-NH2 [Compound 39, Y-Aib-E-G-T-F-T-S-D-Y-S-I-Aib-L-E-K-Q-A-Q-Aib-A-F-V-E-W-L-I-K(1,3)-G-G-P-S-S-G-A-S-Aib-R-H-Y-Y-N-W-L-T-R-Q-NMeR-Y-NH2.C20DA-gGlu-gGlu-gGlu-gGlu-gGlu-gGlu-eLys(1,2)]”, the EC50 on hGLP1R (setting [1]) was determined as 0.09 nM; on hGLP1R (setting [2]), 0.82 nM; at hGIPR (setting [3]) it was 0.06 nM; at hGIPR (setting [4]), 0.4 nM.

Regarding “H-Y[Aib]EGTFTSDYSI[Aib]LEKQAQ[Aib]AFVEWLIK([εLys-γGlu-γGlu-γGlu-γGlu-γGlu-γGlu-C20 diacid])GGPSSGAS[Aib]RHY[Aib]NR[Aib]TRQRY-NH2 [Compound 4, Y-Aib-E-G-T-F-T-S-D-Y-S-I-Aib-L-E-K-Q-A-Q-Aib-A-F-V-E-W-L-I-K(1,3)-G-G-P-S-S-G-A-S-Aib-R-H-Y-Aib-N-R-Aib-T-R-Q-R-Y-NH2.C20DA-gGlu-gGlu-gGlu-gGlu-gGlu-gGlu-eLys(1,2)]”, the EC50 on hGLP1R (setting [1]) was found to be 0.09 nM; on hGIPR (setting [3]), 0.25 nM; on hGIPR (setting [4]), 1.66 nM.

For “H-Y[Aib]EGTFTSDYSI[Aib]LEKQAQ[Aib]AFVEWLIK([εLys-γGlu-γGlu-γGlu-γGlu-γGlu-γGlu-C20 diacid])GGPSSGISLRHYYNWLTRQRY-NH2 [Compound 94, Y-Aib-E-G-T-F-T-S-D-Y-S-I-Aib-L-E-K-Q-A-Q-Aib-A-F-V-E-W-L-I-K(1,3)-GGPSSGISLRHYYNWLTRQRY-NH2.C20DA-gGlu-gGlu-gGlu-gGlu-gGlu-gGlu-eLys(1,2)]”, the EC50 at hGLP1R (setting [1]) was 0.09 nM; on hGIPR (setting [3]), 0.22 nM; on hGIPR (setting [4]) it was 1.04 nM.

“H-Y[Aib]EGTFTSDYSI[Aib]LEKQAQ[Aib]AFVEWLIK([εLys-γGlu-γGlu-γGlu-γGlu-γGlu-γGlu-C20 diacid])GGQSSGASLRHYYNWLTRQRY-NH2 [Compound 123, Y-Aib-E-G-T-F-T-S-D-Y-S-I-Aib-L-E-K-Q-A-Q-Aib-A-F-V-E-W-L-I-K(1,3)-GGQSSGASLRHYYNWLTRQRY-NH2.C20DA-gGlu-gGlu-gGlu-gGlu-gGlu-gGlu-eLys(1,2)]”: the EC50 on hGLP1R (setting [1]) was 0.24 nM; on hGIPR (setting [3]) it was 0.42 nM.

For the substance “H-Y[Aib]EGTFTSDYSI[Aib]LEKQAQ[Aib]AFVEYLIK([εLys-γGlu-γGlu-γGlu-γGlu-γGlu-γGlu-C20 diacid])GGPSSGASLRHYYNWLTRQRY-NH2 [Compound 135, Y-Aib-E-G-T-F-T-S-D-Y-S-I-Aib-L-E-K-Q-A-Q-Aib-A-F-V-E-Y-L-I-K(1,3)-GGPSSGASLRHYYNWLTRQRY-NH2.C20DA-gGlu-gGlu-gGlu-gGlu-gGlu-gGlu-eLys(1,2)]”, the EC50 on hGLP1R (setting [1]) was determined as 0.24 nM; at hGIPR (setting [3]), 0.11 nM; on hGIPR (setting [4]) it was 1.07 nM.

Turning to “H-Y[Aib]EGTFTSDYSI[Aib]LEKQAQ[Aib]AFVQWLIK([AEEA-AEEA-γGlu-γGlu-γGlu-γGlu-C18 diacid])GGPEEPASLRHYYNWLTRQRY-NH2 [Compound 57, Y-Aib-E-G-T-F-T-S-D-Y-S-I-Aib-L-E-K-Q-A-Q-Aib-A-F-V-Q-W-L-I-K(1,3)-GGPEEPASLRHYYNWLTRQRY-NH2.C18DA-gGlu-gGlu-gGlu-gGlu-OEG-OEG(1,2)]”, the EC50 at hGLP1R (setting [1]) is 0.14 nM; on hGIPR (setting [3]) it was 0.18 nM; on hGIPR (setting [4]), 1.17 nM.

As for “H-Y[Aib]EGTFTSDYSI[Aib]LEKQAQ[Aib]AFVQWLIK([AEEA-AEEA-γGlu-γGlu-γGlu-γGlu-C20 diacid])GGPSEGASLRHYYNWLTRQRY-NH2 [Compound 269, Y-Aib-E-G-T-F-T-S-D-Y-S-I-Aib-L-E-K-Q-A-Q-Aib-A-F-V-Q-W-L-I-K(1,3)-GGPSEGASLRHYYNWLTRQRY-NH2.C20DA-gGlu-gGlu-gGlu-gGlu-OEG-OEG(1,2)]”, the EC50 at hGLP1R (setting [1]) came out at 0.14 nM; at hGLP1R (setting [2]) it was 3.86 nM; on hGIPR (setting [3]), 0.46 nM; at hGIPR (setting [4]), 1.23 nM.

The record behind these values is US20240247080A1, “GLP1/GIP/NPY2 RECEPTOR TRIPLE AGONISTS” (Boehringer Ingelheim International GmbH, priority 2022, published 2024).
